Legend:
[1] = target: hMC1R (Homo sapiens (Human), UniProt Q01726); test: Transactivation test: melanocortin receptors (pCRE-Luc luciferase reporter), hMC1R; assay type: cell-based; settings: HEK293 transfected with pCRE-Luc and hMC1R; products tested alone (agonist), 6 h incubation; % activity vs NDP-MSH 10 nM; IA: inactive
Procedure: (§1) Transactivation Test: Melanocortin Receptors
(§2) HEK293 lines are transfected with the pCRE-Luc and hMC1R, hMC3R, hMC4R or hMC5R vectors. The cells are cultured at 37° C., 5% CO2, in DMEM medium supplemented with 10% of foetal calf serum.
(§3) In the presence of an activator (agonist), the melanocortin receptor will activate the cAMP pathway which, via the CRE-Luc vector, will result in the synthesis of luciferase. After the addition of a lysis buffer containing a luminescent substrate for luciferase, it will be possible to measure the luminescence proportional to the degree of activation or of inhibition of the receptor.
(§4) The products are solubilized at 10 mM in DMSO. They are tested in the form of dose-response at a final DMSO concentration of 0.1%. The range comprising 10 points and one zero begins at 10 μM with 4-fold dilutions. For testing agonists, the products are tested alone. For determining the behaviour of antagonists, the products of interest are tested in the presence of 1 nM NDP-MSH (reference agonist). The cells are seeded at a rate of 5000 cells per well (384 well plate) in serum-free DMEM medium, and incubated overnight at 37° C., 5% CO2.
(§5) The products and the reference ligand (NDP-MSH) are added the following day, and the plates are again incubated for 6 h at 37° C., 5% CO2. After the addition of lysis buffer containing luciferin, the plates are read on a Top-Count instrument. The results are standardized as % activity using the 100% (cells+NDP-MSH at 10 nM) and 0% (cells alone) controls. An EC50 is calculated for each product using the XLFit software. The results are given in nM.

[2] = target: hMC4R (Homo sapiens (Human), UniProt P32245); test: Transactivation test: melanocortin receptors (pCRE-Luc luciferase reporter), hMC4R; assay type: cell-based; settings: HEK293 transfected with pCRE-Luc and hMC4R; products tested alone (agonist), 6 h incubation; % activity vs NDP-MSH 10 nM; IA: inactive
Sequence of hMC4R (P32245 whole entry): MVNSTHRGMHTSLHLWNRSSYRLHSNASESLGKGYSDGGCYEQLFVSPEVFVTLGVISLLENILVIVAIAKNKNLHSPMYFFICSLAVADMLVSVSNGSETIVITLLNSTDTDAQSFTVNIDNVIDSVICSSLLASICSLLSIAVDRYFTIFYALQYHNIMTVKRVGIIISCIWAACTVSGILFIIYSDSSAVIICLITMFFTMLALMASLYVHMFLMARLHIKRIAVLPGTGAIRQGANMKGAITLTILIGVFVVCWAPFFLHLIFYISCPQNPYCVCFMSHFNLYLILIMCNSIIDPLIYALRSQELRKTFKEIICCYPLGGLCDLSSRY
Procedure: as §1, §2, §3, §4, §5

Sequence of hMC1R (Q01726 whole entry): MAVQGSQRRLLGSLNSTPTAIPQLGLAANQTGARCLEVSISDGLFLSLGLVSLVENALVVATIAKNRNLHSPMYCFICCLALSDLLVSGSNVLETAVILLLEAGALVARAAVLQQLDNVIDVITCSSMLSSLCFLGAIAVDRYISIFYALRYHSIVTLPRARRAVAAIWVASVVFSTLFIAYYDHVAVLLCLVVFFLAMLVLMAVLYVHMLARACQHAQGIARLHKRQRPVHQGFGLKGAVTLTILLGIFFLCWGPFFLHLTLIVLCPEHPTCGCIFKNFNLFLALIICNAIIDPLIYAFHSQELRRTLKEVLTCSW

| EC50 [1] [nM] | EC50 [2] [nM] | SMILES |
| --- | --- | --- |
| 60 | 4000 | CC#CCC1(c2ccccc2C)CN(C(=O)[C@@H](Cc2ccc(OC)cc2)NC(=O)CCc2c[nH]cn2)C1 [Compound 75, N-[(R)-2-(3-But-2-ynyl-3-o-tolylazetidin-1-yl)-1-(4-methoxybenzyl)-2-oxoethyl]-3-(1H-imidazol-4-yl)propionamide] |
| 120 | 100 | CCCCCC1(c2cc(F)ccc2F)CN(C(=O)[C@@H](Cc2ccc(OC)cc2)NC(=O)CCc2c[nH]cn2)C1 [Compound 60, N-[(R)-2-[3-(2,5-difluorophenyl)-3-pentylazetidin-1-yl]-1-(4-methoxybenzyl)-2-oxoethyl]-3-(1H-imidazol-4-yl)propionamide] |
| 15 | 1000 | COc1ccc(C[C@@H](NC(=O)CCc2nc[nH]c2C)C(=O)N2CC(OCC3CCC3)(c3ccccc3C)C2)cc1 [Compound 79, N-[(R)-2-(3-Cyclobutylmethoxy-3-o-tolylazetidin-1-yl)-1-(4-methoxybenzyl)-2-oxoethyl]-3-(5-methyl-1H-imidazol-4-yl)propionamide] |
| 120 | 2000 | COc1ccc(C[C@@H](NC(=O)CCc2c[nH]cn2)C(=O)N2CC(OCC3CCCCC3)(c3ccccc3C)C2)cc1 [Compound 77, N-[(R)-2-(3-Cyclohexylmethoxy-3-o-tolylazetidin-1-yl)-1-(4-methoxybenzyl)-2-oxoethyl]-3-(1H-imidazol-4-yl)propionamide] |
| 500 | 4000 | COc1ccc(C[C@H](NC(=O)[C@H](Cc2c[nH]cn2)NC(=O)c2ccccc2)C(=O)N2CC(O)(C3CCCCC3)C2)cc1 [Compound 7, N-[(S)-1-[(S)-2-(3-cyclohexyl-3-hydroxyazetidin-1-yl)-1-(4-methoxybenzyl)-2-oxoethylcarbamoyl]-2-(1H-imidazol-4-yl)ethyl]benzamide] |
| 250 | 250 | CCCCCC1(C2CCCCC2)CN(C(=O)[C@@H](Cc2ccc(OC)cc2)NC(=O)CCc2c[nH]cn2)C1 [Compound 66, N-[(R)-2-(3-cyclohexyl-3-pentylazetidin-1-yl)-1-(4-methoxybenzyl)-2-oxoethyl]-3-(1H-imidazol-4-yl)propionamide] |
| 2000 | 2000 | CCCCCC1(c2ccccc2)CN(C(=O)[C@@H](Cc2ccc(Cl)cc2)NC(=O)CCc2c[nH]cn2)C1 [Compound 45, N-[(R)-1-(4-chlorobenzyl)-2-oxo-2-(3-pentyl-3-phenylazetidin-1-yl)ethyl]-3-(1H-imidazol-4-yl)propionamide] |
| 250 | 2000 | CCCCCC1(c2ccccc2C)CN(C(=O)[C@@H](Cc2ccc(OC)cc2)NC(=O)CCc2c[nH]cn2)C1 [Compound 37, N-[(R)-1-(4-methoxybenzyl)-2-oxo-2-(3-pentyl-3-o-tolylazetidin-1-yl)ethyl]-3-(1H-imidazol-4-yl)propionamide] |
| 1000 | 8000 | CCCCCCOC1(c2ccccc2C)CN(C(=O)[C@@H](Cc2ccc(OC)cc2)NC(=O)CCc2c[nH]cn2)C1 [Compound 25, N-[(R)-2-(3-hexyloxy-3-o-tolylazetidin-1-yl)-1-(4-methoxybenzyl)-2-oxoethyl]-3-(1H-imidazol-4-yl)propionamide] |
| 4000 | 8000 | COc1ccc(C[C@H](NC(=O)[C@H](Cc2c[nH]cn2)NC(=O)c2ccccc2)C(=O)N2CC(OC(C)=O)(c3ccccc3C)C2)cc1 [Compound 5, 1-[(S)-2-[(S)-2-benzoylamino-3-(1H-imidazol-4-yl)propionylamino]-3-(4-methoxyphenyl)propionyl]-3-o-tolylazetidin-3-yl acetate] |
| 1000 | 4000 | CCCCCC1(c2ccccc2)CN(C(=O)[C@@H](Cc2ccc(F)cc2)NC(=O)CCc2c[nH]cn2)C1 [Compound 46, N-[(R)-1-(4-fluorobenzyl)-2-oxo-2-(3-pentyl-3-phenylazetidin-1-yl)ethyl]-3-(1H-imidazol-4-yl)propionamide] |
| 120 | 10000 | CCCOC1(c2ccccc2C)CN(C(=O)[C@@H](Cc2ccc(OC)cc2)NC(=O)CCc2c[nH]cn2)C1 [Compound 22, N-[(R)-1-(4-methoxybenzyl)-2-oxo-2-(3-propoxy-3-o-tolylazetidin-1-yl)ethyl]-3-(1H-imidazol-4-yl)propionamide] |
| 500 | 4000 | CCCCCC1(c2ccccc2)CN(C(=O)[C@@H](Cc2ccc(OC)cc2)NC(=O)CCc2c[nH]cn2)C1 [Compound 26, N-[(R)-1-(4-methoxybenzyl)-2-oxo-2-(3-pentyl-3-phenylazetidin-1-yl)ethyl]-3-(1H-imidazol-4-yl)propionamide] |
| 120 | 1000 | CCCCCC1(c2cccc(F)c2)CN(C(=O)[C@@H](Cc2ccc(OC)cc2)NC(=O)CCc2c[nH]cn2)C1 [Compound 55, N-[(R)-2-[3-(3-fluorophenyl)-3-pentylazetidin-1-yl]-1-(4-methoxybenzyl)-2-oxoethyl]-3-(1H-imidazol-4-yl)propionamide] |

| SMILES | EC50 [1] [nM] | EC50 [2] [nM] |
| --- | --- | --- |
| CCCCOC1(c2ccccc2)CN(C(=O)[C@@H](Cc2ccc(OC)cc2)NC(=O)CCc2c[nH]cn2)C1 [Compound 36, N-[(R)-2-(3-butoxy-3-phenylazetidin-1-yl)-1-(4-methoxybenzyl)-2-oxoethyl]-3-(1H-imidazol-4-yl)propionamide] | 1000 | 3000 |
| CCCCOC1(c2ccccc2C)CN(C(=O)[C@@H](Cc2ccc(OC)cc2)NC(=O)CCc2c[nH]cn2)C1 [Compound 15, N-[(R)-2-(3-butoxy-3-o-tolylazetidin-1-yl)-1-(4-methoxybenzyl)-2-oxoethyl]-3-(1H-imidazol-4-yl)propionamide] | 120 | 4000 |
| CCCCOC1(c2ccc(F)cc2)CN(C(=O)[C@@H](Cc2ccc(F)cc2)NC(=O)CCc2c[nH]cn2)C1 [Compound 32, N-[(R)-2-[3-butoxy-3-(4-fluorophenyl)azetidin-1-yl]-1-(4-fluorobenzyl)-2-oxoethyl]-3-(1H-imidazol-4-yl)propionamide] | 1000 | 4000 |
| CCCCOC1(c2ccccc2)CN(C(=O)[C@@H](Cc2ccc(F)cc2)NC(=O)CCc2c[nH]cn2)C1 [Compound 33, N-[(R)-2-(3-butoxy-3-phenylazetidin-1-yl)-1-(4-fluorobenzyl)-2-oxoethyl]-3-(1H-imidazol-4-yl)propionamide] | 500 | 2000 |
| CCCCOC1(c2ccccc2C)CN(C(=O)[C@@H](Cc2ccc(OC)cc2)NC(=O)CCC2N=NC(C)=N2)C1 (stereo partly drawn) [Compound 40, N-[(R)-2-(3-butoxy-3-o-tolylazetidin-1-yl)-1-(4-methoxybenzyl)-2-oxoethyl]-3-(5-methyl-3H-[1,2,4]triazol-3-yl)propionamide] | 8000 | 500 |
| CCCCOC1(c2ccccc2C)CN(C(=O)[C@H](Cc2ccc(OC)cc2)NC(=O)[C@H](Cc2c[nH]cn2)NC(=O)c2ccccc2)C1 [Compound 2, N-[(S)-1-[(S)-2-(3-butoxy-3-o-tolylazetidin-1-yl)-1-(4-methoxybenzyl)-2-oxoethylcarbamoyl]-2-(1H-imidazol-4-yl)ethyl]benzamide] | 30 | 8000 |
| CCCCOC1(c2ccc(F)cc2)CN(C(=O)[C@@H](Cc2ccc(OC)cc2)NC(=O)CCc2c[nH]cn2)C1 [Compound 23, N-[(R)-2-[3-butoxy-3-(4-fluorophenyl)azetidin-1-yl]-1-(4-methoxybenzyl)-2-oxoethyl]-3-(1H-imidazol-4-yl)propionamide] | 60 | 1000 |
| CCCCOC1(c2ccccc2C)CN(C(=O)[C@@H](Cc2ccc(OC)cc2)NC(=O)CCc2cn(C)cn2)C1 [Compound 69, N-[(R)-2-(3-Butoxy-3-o-tolylazetidin-1-yl)-1-(4-methoxybenzyl)-2-oxoethyl]-3-(1-methyl-1H-imidazol-4-yl)propionamide] | 1000 | 8000 |
| CCCCOC1(c2ccccc2)CN(C(=O)[C@H](Cc2ccc(OC)cc2)NC(=O)[C@H](Cc2c[nH]cn2)NC(=O)c2ccccc2)C1 [Compound 3, N-[(S)-1-[(S)-2-(3-butoxy-3-phenylazetidin-1-yl)-1-(4-methoxybenzyl)-2-oxoethylcarbamoyl]-2-(1H-imidazol-4-yl)ethyl]benzamide] | 60 | 4000 |
| CCCCOC1(c2ccccc2C)CN(C(=O)C(NC(=O)CCc2c[nH]cn2)C(O)c2ccc(OC)cc2)C1 (centres unmarked) [Compound 73, N-[1-(3-Butoxy-3-o-tolylazetidine-1-carbonyl)-2-hydroxy-2-(4-methoxyphenyl)ethyl]-3-(1H-imidazol-4-yl)propionamide] | 500 | 8000 |
| CCCCOC1(c2ccccc2)CN(C(=O)[C@@H](Cc2ccccc2)NC(=O)CCc2c[nH]cn2)C1 [Compound 35, N-[(R)-1-benzyl-2-(3-butoxy-3-phenylazetidin-1-yl)-2-oxoethyl]-3-(1H-imidazol-4-yl)propionamide] | 500 | 2000 |

— US9630949B2, “Oxoazetidine derivatives, process for the preparation thereof and use thereof in human medicine and in cosmetics” (GALDERMA RESEARCH & DEVELOPMENT, priority 2008, dated 2017)
